Test results published in patent US8735396B2, “Benzofuranyl derivatives” (Pfizer Inc., priority 2009, dated 2014).

Molecular target: T1, Full-length glucokinase (beta cell isoform) (Homo sapiens, UniProt P35557)
T1 construct: Full-length glucokinase (beta cell isoform) was His-tagged at N-terminus; His tag (N); made in house; host or cells: E. coli BL21(DE3) carrying the pBCGK vector
T1 sequence (P35557 1-465): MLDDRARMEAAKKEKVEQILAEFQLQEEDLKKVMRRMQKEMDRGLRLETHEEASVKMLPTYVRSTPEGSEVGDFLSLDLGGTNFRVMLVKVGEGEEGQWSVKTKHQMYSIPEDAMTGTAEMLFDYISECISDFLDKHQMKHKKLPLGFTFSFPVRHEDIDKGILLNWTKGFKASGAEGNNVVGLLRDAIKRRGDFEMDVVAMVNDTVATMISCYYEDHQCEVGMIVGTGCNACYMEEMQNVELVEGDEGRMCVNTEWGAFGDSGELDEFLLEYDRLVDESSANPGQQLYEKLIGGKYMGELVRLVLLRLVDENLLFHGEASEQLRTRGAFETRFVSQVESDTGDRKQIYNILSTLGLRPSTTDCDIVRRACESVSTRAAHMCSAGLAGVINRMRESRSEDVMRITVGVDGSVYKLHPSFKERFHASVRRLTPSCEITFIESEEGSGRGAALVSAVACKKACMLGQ
Test: In vitro glucokinase activation assay (PK/LDH coupled, NADH depletion at 340 nm)
Format: biochemical
Settings: 5 mM glucose, 2.5 mM ATP; for EC50: pH 7.1, room temperature; for Emax: pH 7.1, (Va/Vo−1)×100 fitted, read-out: Maximum Activation (%)
Procedure: Full-length glucokinase (beta cell isoform) was His-tagged at N-terminus and purified by a Ni column followed by size exclusion chromatography. A 320 mL column was packed in house using Superdex75 (Amersham Pharmacia, Carlsbad, Calif.) preparation grade resin. Glucose was obtained from Calbiochem (San Diego, Calif.) and other reagents were purchased from Sigma-Aldrich (St. Louis, Mo.).
All assays were performed in a Corning 384-well plate using Spectramax PLUS spectrophotometer (Molecular Devices, Sunnyvale, Calif.) at room temperature. The final assay volume was 40 μL. The buffer conditions used in this assay were as follows: 50 mM HEPES, 5 mM glucose, 2.5 mM ATP, 3.5 mM MgCl2, 0.7 mM NADH, 2 mM dithiothreitol, 1 unit/mL pyruvate kinase/lactate dehydrogenase (PK/LDH), 0.2 mM phosphoenolpyruvate, and 25 mM KCl. The buffer pH was 7.1. The test compound in dimethylsulfoxide solution was added to the buffer and mixed by a plate shaker for 7.5 minutes.
Glucokinase was added to the buffer mixture to initiate the reaction in the presence and absence of compound. The reaction was monitored by absorbance at 340 nm due to the depletion of NADH. The initial reaction velocity was measured by the slope of a linear time course of 0-300 seconds. The percentage of maximum activation was calculated by the following equation: % Maximum Activation=(Va/Vo−1)×100; wherein each of Va and Vo is defined as the initial reaction velocity in the presence and absence of the tested compound, respectively.
The glucokinase activities were measured as a function of compound concentrations.

SMILES | EC50 [nM] | Emax [%]
COc1cnc(NC(=O)c2cc(Oc3cnc(C(=O)N(C)C)nc3)c3cc(C)oc3c2)cn1 [Example 3, 5-(6-((5-methoxypyrazin-2-yl)carbamoyl)-2-methylbenzofuran-4-yloxy)-N,N-dimethylpyrimidine-2-carboxamide] | 462 | 69.5
Cc1cc2c(Oc3cnc(C(=O)N(C)C)nc3)cc(C(=O)Nc3ccn(C)n3)cc2o1 [Example 4, N,N-dimethyl-5-(2-methyl-6-((1-methyl-1H-pyrazol-3-yl)-carbamoyl)benzofuran-4-yloxy)pyrimidine-2-carboxamide] | 629 | 63.9

Results, then the molecule that gave them:

EC50 [nM] | Emax [%] | SMILES
546 | 57.6 | CCN(C)C(=O)c1ncc(Oc2cc(C(=O)Nc3cnc(C)cn3)cc3oc(C)cc23)cn1 [Example 5, N-ethyl-N-methyl-5-(2-methyl-6-((5-methylpyrazin-2-yl)carbamoyl)benzofuran-4-yloxy)pyrimidine-2-carboxamide]
382 | 54.1 | CCN(C)C(=O)c1ncc(Oc2cc(C(=O)Nc3ccn(C)n3)cc3oc(C)cc23)cn1 [Example 6, N-ethyl-N-methyl-5-(2-methyl-6-((1-methyl-1H-pyrazol-3-yl)carbamoyl)benzofuran-4-yloxy)pyrimidine-2-carboxamide]
474 | 63.4 | CCN(C)C(=O)c1cnc(Oc2cc(C(=O)Nc3cnc(C)cn3)cc3oc(C)cc23)cn1 [Example 7, N-ethyl-N-methyl-5-(2-methyl-6-((5-methylpyrazin-2-yl)carbamoyl)-benzofuran-4-yloxy)pyrazine-2-carboxamide]
